From PubChem BioAssay (NCI)
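Each compound was tested at five concentrations against cells in 96-well plates for 48 hours. GI50: concentration for 50% inhibition of growth. TGI: total growth inhibition.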

Assays:
Experiment in all cases: DTP human tumour cell line panel, 48 h
NCI-H226 lung = tested on: NCI-H226 lung
NCI-H23 lung = tested on: NCI-H23 lung
NCI-H460 lung = tested on: NCI-H460 lung
NCI-H522 lung = tested on: NCI-H522 lung
NCI/ADR-RES ovarian = tested on: NCI/ADR-RES ovarian
OVCAR-3 ovarian = tested on: OVCAR-3 ovarian
OVCAR-4 ovarian = tested on: OVCAR-4 ovarian
OVCAR-5 ovarian = tested on: OVCAR-5 ovarian
OVCAR-8 ovarian = tested on: OVCAR-8 ovarian
PC-3 prostate = tested on: PC-3 prostate
RPMI-8226 leukemia = tested on: RPMI-8226 leukemia
RXF 393 renal = tested on: RXF 393 renal
SF-268 CNS = tested on: SF-268 CNS
SF-295 CNS = tested on: SF-295 CNS
SF-539 CNS = tested on: SF-539 CNS
SK-MEL-2 melanoma = tested on: SK-MEL-2 melanoma
SK-MEL-28 melanoma = tested on: SK-MEL-28 melanoma
SK-MEL-5 melanoma = tested on: SK-MEL-5 melanoma
SK-OV-3 ovarian = tested on: SK-OV-3 ovarian
SN12C renal = tested on: SN12C renal
SNB-19 CNS = tested on: SNB-19 CNS
SNB-75 CNS = tested on: SNB-75 CNS
SR leukemia = tested on: SR leukemia
SW-620 colon = tested on: SW-620 colon
T-47D breast = tested on: T-47D breast
TK-10 renal = tested on: TK-10 renal
U251 CNS = tested on: U251 CNS
UACC-257 melanoma = tested on: UACC-257 melanoma
UACC-62 melanoma = tested on: UACC-62 melanoma
UO-31 renal = tested on: UO-31 renal

Molecule `CN(C)c1ccc(/C=C/c2n(Cc3ccc4ccccc4c3)c3ccccc3[n+]2Cc2ccc3ccccc3c2)cc1` has a TGI (NCI-H226 lung) of 1010 nM, a GI50 (NCI-H23 lung) of 250 nM and a TGI (NCI-H23 lung) of 752 nM. For the same molecule, the GI50 (NCI-H460 lung) was 260 nM, the TGI (NCI-H460 lung) was 1130 nM and the GI50 (NCI-H522 lung) was 246 nM. The TGI (NCI-H522 lung) was 737 nM, the GI50 (NCI/ADR-RES ovarian) was 1320 nM and the TGI (NCI/ADR-RES ovarian) was 3460 nM. For the same molecule, the GI50 (OVCAR-3 ovarian) was 267 nM, the TGI (OVCAR-3 ovarian) was 1250 nM and the GI50 (OVCAR-4 ovarian) was 342 nM. For the same molecule, the TGI (OVCAR-4 ovarian) was 1650 nM, the GI50 (OVCAR-5 ovarian) was 360 nM and the TGI (OVCAR-5 ovarian) was 1410 nM. It also gave a GI50 (OVCAR-8 ovarian) of 312 nM, a TGI (OVCAR-8 ovarian) of 1350 nM and a GI50 (PC-3 prostate) of 250 nM. It also gave a TGI (PC-3 prostate) of 1250 nM, a GI50 (RPMI-8226 leukemia) of 237 nM and a TGI (RPMI-8226 leukemia) of 1130 nM. It also gave a GI50 (RXF 393 renal) of 231 nM, a TGI (RXF 393 renal) of 1020 nM and a GI50 (SF-268 CNS) of 383 nM. It also gave a TGI (SF-268 CNS) of 1630 nM, a GI50 (SF-295 CNS) of 266 nM and a TGI (SF-295 CNS) of 996 nM. It also gave a GI50 (SF-539 CNS) of 346 nM, a TGI (SF-539 CNS) of 1330 nM and a GI50 (SK-MEL-2 melanoma) of 271 nM. For the same molecule, the TGI (SK-MEL-2 melanoma) was 770 nM, the GI50 (SK-MEL-28 melanoma) was 491 nM and the TGI (SK-MEL-28 melanoma) was 1710 nM. It also gave a GI50 (SK-MEL-5 melanoma) of 181 nM, a TGI (SK-MEL-5 melanoma) of 346 nM and a GI50 (SK-OV-3 ovarian) of 280 nM. For the same molecule, the TGI (SK-OV-3 ovarian) was 1090 nM, the GI50 (SN12C renal) was 286 nM and the TGI (SN12C renal) was 1070 nM. The GI50 (SNB-19 CNS) was 296 nM, the TGI (SNB-19 CNS) was 1190 nM and the GI50 (SNB-75 CNS) was 240 nM. It also gave a TGI (SNB-75 CNS) of 1140 nM, a GI50 (SR leukemia) of 399 nM and a TGI (SR leukemia) of 2300 nM. For the same molecule, the GI50 (SW-620 colon) was 319 nM, the TGI (SW-620 colon) was 1310 nM and the GI50 (T-47D breast) was 294 nM. It also gave a TGI (T-47D breast) of 1500 nM, a GI50 (TK-10 renal) of 416 nM and a TGI (TK-10 renal) of 1680 nM. It also gave a GI50 (U251 CNS) of 166 nM, a TGI (U251 CNS) of 1270 nM and a GI50 (UACC-257 melanoma) of 265 nM. For the same molecule, the TGI (UACC-257 melanoma) was 919 nM, the GI50 (UACC-62 melanoma) was 281 nM and the TGI (UACC-62 melanoma) was 1020 nM. For the same molecule, the GI50 (UO-31 renal) was 530 nM and the TGI (UO-31 renal) was 1840 nM.
